Measurements published in article PMC3881672, “In Vitro Permeation of Micronized and Nanonized Alaptide from Semisolid Formulations” (The Scientific World Journal, 2013).
Marks after values point to notes of the source that are not given here. Each block holds one compound with its values, some of them ahead of it.

Key:
[1] = In vitro transdermal permeation, Franz diffusion cell; details: for Cumulative permeated amounts Q t: mean ± SD n = 5; for apparent permeability coefficient K p × 10^−3: Kp = J/Cd, Cd 1.0 × 10^4 μg/mL
[2] = design: method as in ref 8, 9 = [8]; 8 Radl S Kasafirek E Krejci I Alaptide Drugs of the Future 1990 15 445 447 || [9]; 9 Jampílek J Opatrilova R Rezacova A Oktabec Z Dohnal J Inventors; Faculty of Pharmacy, University of Veterinary and Pharmaceutical Sciences Brno, assignee, “Alaptide: Methods of effecting its solubil; details: octanol-water; cited from earlier work
[3] = design: method as in ref 8, 9 = [8]; 8 Radl S Kasafirek E Krejci I Alaptide Drugs of the Future 1990 15 445 447 || [9]; 9 Jampílek J Opatrilova R Rezacova A Oktabec Z Dohnal J Inventors; Faculty of Pharmacy, University of Veterinary and Pharmaceutical Sciences Brno, assignee, “Alaptide: Methods of effecting its solubil; details: cited from earlier work
experimental injury = test system: experimental injury; design: method as in ref 8 = [8]; 8 Radl S Kasafirek E Krejci I Alaptide Drugs of the Future 1990 15 445 447; details: pigs; cited from earlier work
[4] = test system: experimental skin injuries; design: method as in ref 8 = [8]; 8 Radl S Kasafirek E Krejci I Alaptide Drugs of the Future 1990 15 445 447; details: rats; cited from earlier work
[5] = design: method as in PMID 3726896, PMID 1687590; details: similar metabolic profile also found in man; cited from earlier work
[6] = design: method as in PMID 3726896, PMID 2905482; details: cited from earlier work
CYP1A1 = test system: CYP1A1; design: method as in PMID 3726896, PMID 2905482; details: hepatocytes; cited from earlier work
CYP1A2 = test system: CYP1A2; design: method as in PMID 3726896, PMID 2905482; details: hepatocytes; cited from earlier work
CYP1B1 = test system: CYP1B1; design: method as in PMID 3726896, PMID 2905482; details: hepatocytes; cited from earlier work

- log K p ([1]; from buffer): −1.77
- Cumulative permeated amounts Q t ([1]; from buffer, 0.5 h): 12.6 ± 1.9^a μg/cm^2
- Cumulative permeated amounts Q t ([1]; from buffer, 1 h): 40.1 ± 8.0^a μg/cm^2
- Cumulative permeated amounts Q t ([1]; from buffer, 2 h): 150.8 ± 7.2^a μg/cm^2
- Cumulative permeated amounts Q t ([1]; from buffer, 4 h): 418.3 ± 24.6^b μg/cm^2
- Cumulative permeated amounts Q t ([1]; from buffer, 6 h): 1189.0 ± 105.9^d μg/cm^2
- Cumulative permeated amounts Q t ([1]; from buffer, 24 h): 3897.1 ± 295.6^f μg/cm^2
- Cumulative permeated amounts Q t ([1]; from cream 1% (w/w), 0.5 h): 89.9 ± 4.0^a μg/cm^2
- Cumulative permeated amounts Q t ([1]; from cream 1% (w/w), 1 h): 206.7 ± 8.9^a μg/cm^2
- Cumulative permeated amounts Q t ([1]; from cream 1% (w/w), 2 h): 568.7 ± 7.2^b μg/cm^2
- Cumulative permeated amounts Q t ([1]; from cream 1% (w/w), 4 h): 1414.5 ± 21.3^d μg/cm^2
- Cumulative permeated amounts Q t ([1]; from cream 1% (w/w), 6 h): 2533.7 ± 9.2^f μg/cm^2
- Cumulative permeated amounts Q t ([1]; from cream 1% (w/w), 24 h): 10602.6 ± 18.2^h μg/cm^2
- log K p ([1]; from gel): −1.23
- Cumulative permeated amounts Q t ([1]; from gel 1% (w/w), 0.5 h): 220.5 ± 11.1^abc μg/cm^2
- Cumulative permeated amounts Q t ([1]; from gel 1% (w/w), 1 h): 401.6 ± 30.9^c μg/cm^2
- Cumulative permeated amounts Q t ([1]; from gel 1% (w/w), 2 h): 626.4 ± 211.1^d μg/cm^2
- Cumulative permeated amounts Q t ([1]; from gel 1% (w/w), 4 h): 1474.5 ± 306.9^f μg/cm^2
- Cumulative permeated amounts Q t ([1]; from gel 1% (w/w), 6 h): 1927.6 ± 241.2^g μg/cm^2
- Cumulative permeated amounts Q t ([1]; from gel 1% (w/w), 24 h): 13766.8 ± 92.8^i μg/cm^2
- Cumulative permeated amounts Q t ([1]; from ointment 1% (w/w), 0.5 h): 75.3 ± 5.4^cd μg/cm^2
- Cumulative permeated amounts Q t ([1]; from ointment 1% (w/w), 1 h): 84.8 ± 7.3^de μg/cm^2
- Cumulative permeated amounts Q t ([1]; from ointment 1% (w/w), 2 h): 96.7 ± 5.9^fg μg/cm^2
- Cumulative permeated amounts Q t ([1]; from ointment 1% (w/w), 4 h): 112.4 ± 7.3^h μg/cm^2
- Cumulative permeated amounts Q t ([1]; from ointment 1% (w/w), 6 h): 126.4 ± 3.7^i μg/cm^2
- Cumulative permeated amounts Q t ([1]; from ointment 1% (w/w), 24 h): 151.9 ± 9.5^j μg/cm^2
- permeation through the skin, fold more than the nanonized form ([1]; from the buffer and other semisolid pharmaceutical compositions): ca. 2 fold
- lag time T lag ([1]; medium buffer): 0.69 ± 0.38 h
- apparent permeability coefficient K p × 10^−3 ([1]; medium buffer): 16.84 10^−3 cm/h
- nonsteady-state permeation flux J ([1]; medium buffer, linearized Q t vs time, six time points): 168.4 ± 8.7 μg/cm^2/h
- lag time T lag ([1]; medium cream): 0.57 ± 0.01 h
- nonsteady-state permeation flux J ([1]; medium cream): 452.2 ± 0.8 μg/cm^2/h
- apparent permeability coefficient K p × 10^−3 ([1]; medium cream): 45.22 10^−3 cm/h
- lag time T lag ([1]; medium gel): 1.03 ± 0.23 h
- nonsteady-state permeation flux J ([1]; medium gel): 588.0 ± 4.8 μg/cm^2/h
- apparent permeability coefficient K p × 10^−3 ([1]; medium gel): 58.80 10^−3 cm/h
Structure (SMILES): C[C@@H]1NC(=O)C2(CCCC2)NC1=O [Micro, (S)-8-Methyl-6,9-diazaspiro[4.5]decan-7,10-dione]

- permeation through the skin from ointment ([1]; both forms of alaptide, ointment): minimal
Structure (SMILES): C[C@@H]1NC(=O)C2(CCCC2)NC1=O [alaptide, (S)-8-Methyl-6,9-diazaspiro[4.5]decan-7,10-dione]
- experimental log P o/w [2]: 1.39
- solubility [3]: poorly soluble
- stability ([3]; sunlight): stable in the sunlight
- skin regeneration after application on experimental injury (experimental injury): faster skin regeneration
- curing of experimental skin injuries [4]: accelerated curing experimental skin injuries
- excretion [5]: excreted unchanged, mostly via urine
- toxic effects (including skin irritation) [6]: No toxic effects
- Induction of CYP1A1 (CYP1A1): did not occur
- Induction of CYP1A2 (CYP1A2): did not occur
- Induction of CYP1B1 (CYP1B1): did not occur
